Experimental data as given in patent US8192962B2, “Processes for detecting toxic substances” (Daikin Industries, Ltd., priority 2001, dated 2012).

System: DNA repair protein genes
Test: DNA chip mRNA expression in yeast, DNA repair protein genes (Table 3)
Assay type: cell-based, Saccharomyces cerevisiae S288C
Conditions: incubated two hours, concentrations as in the 1st table
Summary of the method: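 S. cerevisiae S288C grown at 25° C. in YPD to log phase, then exposed 2 h to a toxicant at a growth-inhibiting, non-lethal concentration; untreated cells as control. Poly(A) mRNA reverse-transcribed with Cy3-dUTP or Cy5-dUTP, hybridized >12 h at 65° C. to whole-genome yeast DNA chip; value = fluorescence ratio treated/untreated.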

C=CC=O [(14), acrolein]
The level of expressed mRNA in the presence of chemical substance/The level of expressed mRNA in the absence of chemical substance (yeast gene YAL015C): 1.6 | The level of expressed mRNA in the presence of chemical substance/The level of expressed mRNA in the absence of chemical substance (yeast gene YAR007C): 1.4 | The level of expressed mRNA in the presence of chemical substance/The level of expressed mRNA in the absence of chemical substance (yeast gene YBL019W): 1.1 | The level of expressed mRNA in the presence of chemical substance/The level of expressed mRNA in the absence of chemical substance (yeast gene YBR073W): 1.0 | The level of expressed mRNA in the presence of chemical substance/The level of expressed mRNA in the absence of chemical substance (yeast gene YBR272C): 1.0 | The level of expressed mRNA in the presence of chemical substance/The level of expressed mRNA in the absence of chemical substance (yeast gene YCR014C): 1.0 | The level of expressed mRNA in the presence of chemical substance/The level of expressed mRNA in the absence of chemical substance (yeast gene YDL017W): 1.3 | The level of expressed mRNA in the presence of chemical substance/The level of expressed mRNA in the absence of chemical substance (yeast gene YDL059C): 4.7 | The level of expressed mRNA in the presence of chemical substance/The level of expressed mRNA in the absence of chemical substance (yeast gene YDL200C): 1.8 | The level of expressed mRNA in the presence of chemical substance/The level of expressed mRNA in the absence of chemical substance (yeast gene YDR054C): 1.1 | The level of expressed mRNA in the presence of chemical substance/The level of expressed mRNA in the absence of chemical substance (yeast gene YDR369C): 0.7 | The level of expressed mRNA in the presence of chemical substance/The level of expressed mRNA in the absence of chemical substance (yeast gene YEL019C): 1.7 | The level of expressed mRNA in the presence of chemical substance/The level of expressed mRNA in the absence of chemical substance (yeast gene YEL037C): 1.0 | The level of expressed mRNA in the presence of chemical substance/The level of expressed mRNA in the absence of chemical substance (yeast gene YER162C): 0.8 | The level of expressed mRNA in the presence of chemical substance/The level of expressed mRNA in the absence of chemical substance (yeast gene YFL014W): 7.3 | The level of expressed mRNA in the presence of chemical substance/The level of expressed mRNA in the absence of chemical substance (yeast gene YGL058W): 1.3 | The level of expressed mRNA in the presence of chemical substance/The level of expressed mRNA in the absence of chemical substance (yeast gene YGL091C): 3.1 | The level of expressed mRNA in the presence of chemical substance/The level of expressed mRNA in the absence of chemical substance (yeast gene YGL127C): 1.0 | The level of expressed mRNA in the presence of chemical substance/The level of expressed mRNA in the absence of chemical substance (yeast gene YGL163C): 1.6 | The level of expressed mRNA in the presence of chemical substance/The level of expressed mRNA in the absence of chemical substance (yeast gene YGL249W): 1.9 | The level of expressed mRNA in the presence of chemical substance/The level of expressed mRNA in the absence of chemical substance (yeast gene YGR180C): 0.9 | The level of expressed mRNA in the presence of chemical substance/The level of expressed mRNA in the absence of chemical substance (yeast gene YGR231C): 2.2 | The level of expressed mRNA in the presence of chemical substance/The level of expressed mRNA in the absence of chemical substance (yeast gene YGR258C): 1.2 | The level of expressed mRNA in the presence of chemical substance/The level of expressed mRNA in the absence of chemical substance (yeast gene YHR164C): 1.3 | The level of expressed mRNA in the presence of chemical substance/The level of expressed mRNA in the absence of chemical substance (yeast gene YIL036W): 1.1 | The level of expressed mRNA in the presence of chemical substance/The level of expressed mRNA in the absence of chemical substance (yeast gene YIL072W): 2.0 | The level of expressed mRNA in the presence of chemical substance/The level of expressed mRNA in the absence of chemical substance (yeast gene YIL143C): 1.0 | The level of expressed mRNA in the presence of chemical substance/The level of expressed mRNA in the absence of chemical substance (yeast gene YIL153W): 1.0 | The level of expressed mRNA in the presence of chemical substance/The level of expressed mRNA in the absence of chemical substance (yeast gene YIR002C): 1.1 | The level of expressed mRNA in the presence of chemical substance/The level of expressed mRNA in the absence of chemical substance (yeast gene YJL026W): 1.0 | The level of expressed mRNA in the presence of chemical substance/The level of expressed mRNA in the absence of chemical substance (yeast gene YJR046W): 1.0 | The level of expressed mRNA in the presence of chemical substance/The level of expressed mRNA in the absence of chemical substance (yeast gene YJR052W): 1.4 | The level of expressed mRNA in the presence of chemical substance/The level of expressed mRNA in the absence of chemical substance (yeast gene YKL145W): 1.0 | The level of expressed mRNA in the presence of chemical substance/The level of expressed mRNA in the absence of chemical substance (yeast gene YLR103C): 1.0 | The level of expressed mRNA in the presence of chemical substance/The level of expressed mRNA in the absence of chemical substance (yeast gene YLR233C): 1.1 | The level of expressed mRNA in the presence of chemical substance/The level of expressed mRNA in the absence of chemical substance (yeast gene YLR288C): 1.2 | The level of expressed mRNA in the presence of chemical substance/The level of expressed mRNA in the absence of chemical substance (yeast gene YML032C): 1.0 | The level of expressed mRNA in the presence of chemical substance/The level of expressed mRNA in the absence of chemical substance (yeast gene YML058W): 1.1 | The level of expressed mRNA in the presence of chemical substance/The level of expressed mRNA in the absence of chemical substance (yeast gene YMR035W): 1.3 | The level of expressed mRNA in the presence of chemical substance/The level of expressed mRNA in the absence of chemical substance (yeast gene YMR072W): 1.2 | The level of expressed mRNA in the presence of chemical substance/The level of expressed mRNA in the absence of chemical substance (yeast gene YMR096W): 4.7 | The level of expressed mRNA in the presence of chemical substance/The level of expressed mRNA in the absence of chemical substance (yeast gene YMR284W): 1.2 | The level of expressed mRNA in the presence of chemical substance/The level of expressed mRNA in the absence of chemical substance (yeast gene YNL213C): 1.8 | The level of expressed mRNA in the presence of chemical substance/The level of expressed mRNA in the absence of chemical substance (yeast gene YNL250W): 1.6 | The level of expressed mRNA in the presence of chemical substance/The level of expressed mRNA in the absence of chemical substance (yeast gene YNL261W): 1.4 | The level of expressed mRNA in the presence of chemical substance/The level of expressed mRNA in the absence of chemical substance (yeast gene YNL312W): 1.1 | The level of expressed mRNA in the presence of chemical substance/The level of expressed mRNA in the absence of chemical substance (yeast gene YOL043C): 1.5 | The level of expressed mRNA in the presence of chemical substance/The level of expressed mRNA in the absence of chemical substance (yeast gene YOR005C): 1.2 | The level of expressed mRNA in the presence of chemical substance/The level of expressed mRNA in the absence of chemical substance (yeast gene YOR386W): 0.9 | The level of expressed mRNA in the presence of chemical substance/The level of expressed mRNA in the absence of chemical substance (yeast gene YPL022W): 0.9 | The level of expressed mRNA in the presence of chemical substance/The level of expressed mRNA in the absence of chemical substance (yeast gene YPL164C): 0.9 | The level of expressed mRNA in the presence of chemical substance/The level of expressed mRNA in the absence of chemical substance (yeast gene YPL194W): 1.1 | The level of expressed mRNA in the presence of chemical substance/The level of expressed mRNA in the absence of chemical substance (yeast gene YPR025C): 1.3
